This is an account of results in PMC4838890, “Dynamic and flexible H3K9me3 bridging via HP1β dimerization establishes a plastic state of condensed chromatin” (Nature Communications, 2016).

Where two headings read alike, the source gives them in different places.

One assay deals with H3KC9me3 peptide. In words: ITC, H3KC9me3 peptide. The class given is binding. The conditions noted are these: for Kd: ITC, pH 7.5, 25°C, read-out: Kd (apparent dissociation constant). As for the experimental part: ITC measurements were performed on a iTC200 calorimeter (Microcal, Malvern, UK) at 25°C in binding buffer (10 mM triethanolamine (pH 7.5), 20 or 150 mM NaCl, 0.1 mM EDTA). Reaction heats were recorded by sequences of 37 injections of 1.8 mM hHP1β, spaced at 120 s intervals, into 250 μl of 60 μM H3 peptides, nucleosomes or oligonucleosomal arrays under constant stirring at 1,000 r.p.m. (injection #1–10: 0.5 μl each; injection #11–32: 1 μl each; injection #33–37: 2 μl each). Heats of dilution, obtained by the titration of hHP1β into buffer, were substracted from raw data before analysis. Raw data were integrated, normalized and the apparent heat change (Δq) of the reaction was plotted against the molecular ratio using the Origin software. For the determination of apparent enthalpy changes (ΔHapp), the molar association constant (KA), and the stoichiometry (n) of the interaction, non-linear least-square fitting of the Δq values was performed by the Origin software using a binding model of one set of identical binding sites.
(§1) Supplementary Table 1: Summary of conditions used in the different experiments of this study. experiment result modification template Temp. [NaCl] [MgCl2] […]
(§2) chromatin Fig. 1e,f; Fig. S1f-h; H3K9me3 oligo- 4 150 5 coprecipitation Fig. S2b nucleosomes
(§3) Fig. S7d,f; Fig.S9c nucleosomes […]
(§4) chromatin sedimentation Fig. 4a; H3K9me3 oligo- 4 150 0
(§5) (single point) Fig. S3b nucleosomes […]
(§6) chromatin sedimentation. oligo-(titration) Fig. 3a H3K9me3 nucleosomes 4 150 0

The target of assay [1] is asymmetrically modified H3K9me3-mononucleosomes. Briefly: SPR, immobilized asymmetric H3K9me3 mononucleosome. Also on record: species or system Xenopus laevis. The conditions noted are these: SPR titration 0.024 to 50 µM, asymmetrically modified mononucleosome at 950 RU, one site-specific binding model; read-out: apparent Kd (Supplementary Fig. 8k).
Assay [2] concerns the target fluorescein-labeled H3K9me3-peptide. Briefly: Fluorescence polarization (FP), H3K9me3 peptide. Type of assay: binding. The conditions noted are these: 150 mM NaCl, 10 mM triethanolamine pH 7.4, 0.1 mM EDTA, 2 mM DTT, 4°C, read-out: apparent Kd. As for the experimental part:
Experiments were performed in 10 mM triethanolamine HCl (pH 7.4), 150 mM NaCl, 0.1 mM EDTA, 2 mM DTT. Titration series of 10 μl volume in 384-well plates were read multiple times on a Plate CHAMELEON II plate reader (HIDEX Oy, Turku, Finland). Multiple readings and independent titration series were averaged after data normalization. […]
hHP1β) using mass spectrometry. For detailed listing of the identified crosslinks see Supplementary […]
(c) Binding of the indicated hHP1β wild type (WT) and mutant proteins to a fluorescein-labeled H3K9me3-peptide was analyzed by FP at 150 mM NaCl. Apparent Kd deduced from the fitted curves are […]
(d) Chromatin coprecipitation of hHP1β WT and mutant proteins with oligonucleosomes. Precipitated material was run on SDS-PAGE and stained with Coomassie Blue. Input, 10 %.
(e) Oligonucleosomes at 2.5 nM were incubated with hHP1β wild type (WT) or mutant proteins at 5 µM and 150 mM NaCl (saturating conditions). DNA remaining in the supernatant after centrifugation was incubated with EtBr and measured by fluorescence reading. Data were n ormalized to DNA levels present in the input. […]
(g) Oligonucleosomes at 6.7 nM were incubated with hHP1β wild type (WT) or mutant proteins at 5 µM and 100 mM NaCl (non-saturating conditions). DNA remaining in the supernatant after centrifugation was incubated with EtBr and measured by fluorescence reading. […]
(Polarisation of emitted light reports the rotation of a fluorescent probe.)

In a further assay the test system is DNA fragment of 150 bp. In words: Electrophoretic mobility shift assay (EMSA). Type of assay: binding. The conditions noted are these: 150 bp DNA, 0, 3, 9 μM protein, 100 mM NaCl, 5 mM MgCl2, RT. The method, then:
50 ng 150 bp DNA amplified from the backbone of pUC18 was incubated with 0, 3, 9 μM recombinant protein in 10 μl EMSA buffer (10 mM Tris-HCl (pH 8.0), 100 mM NaCl, 5 mM MgCl2) for 20 min at room temperature (RT). 2 μl 50% (v/v) glycerol was added and samples were loaded onto 6% native PAGE gels. After electrophoresis, DNA was visualized by staining with 1 × SYBR Gold/0.25 × TBE for 20 min at RT. Images were captured using a ChemiDoc MP Imaging System (Bio-Rad, München, Germany). […]
crosslinking Fig. S6e,f nucleosomes […]
crosslinking Fig. S7a,b nucleosomes
EMSA Fig. 1g; Fig. 5c; n//a RT 100 5
1Preincubation of oligonucleosomes and h HP1β was performed at 4 °C . Measurements wer e carried out at the in dicated te mperature.
2in increments o f 0 .5 mM
3MgCl2 was added at the end of incubation to coprecipitate oligonucleosomes a nd bound hHP1β.
(A gel shift assay detects complexes by their altered migration in electrophoresis.)

Assay [3] concerns immobilized H3 tail peptides, mono- and oligonucleosomes. In words: Pull-down, H3 tail peptides, mono- and oligonucleosomes. The class given is binding, Xenopus laevis. The conditions noted are these: immobilized on streptavidin beads, 4°C. As for the experimental part:
(§7) 4 μg C-terminally biotinylated histone H3 peptides (aa 1–20) or 1 μg of biotinylated nucleosomes or oligonucleosomal arrays were incubated with 40 μl Streptavidin MagnaSphere Paramagmetic beads (Promega, Mannheim, Germany) in 350 μl binding buffer (10 mM triethanolamine (pH 7.5), 150 mM NaCl, 0.1 mM EDTA, 0.1% (v/v) Triton-X100) supplemented with 1 mg ml^−1 BSA for 2.5 h at RT. Unbound material was removed by three washes with 0.5 ml binding buffer. Charged beads were then incubated with 100 pmol recombinant protein in 350 μl binding buffer for 1 h at 4°C on a rotator. Beads were washed three times with 0.5 ml binding buffer for 3 min per wash at 4°C. Bound proteins were eluted in 20 μl 1 × SDS loading buffer and by boiling for 5 min.
as §1, §2, §3, §4, §5, §6

For another assay, the target named is T1, H3K9me3 peptide (Homo sapiens, UniProt P68431).
T1 construct: C-terminally biotinylated histone H3 peptides (aa 1–20)
Briefly: Pull-down, immobilized H3K9me3 peptide. Type of assay: binding. The conditions noted are these: H3-tail peptides densely immobilized on magnetic beads, 100 pmol protein, 150 mM NaCl, 4°C. As for the experimental part:
as §7, §1, §2, §3, §4, §5, §6

On to “hHP1β WT: recombinant human heterochromatin protein 1β (GenBank NM_001127228), 185 aa”, for which the Kd on H3KC9me3 peptide (20 mM NaCl) is 11 ± 4 µM; on H3KC9me3 peptide (150 mM NaCl) it was 21 ± 3 µM; in assay [1], 7.5 µM; in assay [2] it was 5 ± 2 µM. Moreover, the “reduced binding to H3-tail peptide containing H3KC9me compared with methylated lysine” value in the assay on H3KC9me3 peptide (Table 1, ref [17]) is listed as “sixfold reduced binding”. In addition, in the assay on DNA fragment of 150 bp, the DNA binding result was “hHP1α but not hHP1β showed a high level of general DNA binding”. The “retention on H3K9me3 versus unmodified matrices” value in assay [3] is “retained much more efficiently on all three matrices in the presence of H3K9me3”.

Consider “hHP1β I161A: CSD point mutant of hHP1β incapable of dimerization”, for which, in the assay with H3K9me3 peptide, the “recovery on H3K9me3 peptide” value is given as “significantly reduced recovery”.
